The target of data set [1] is T1, RXRβ (Homo sapiens, UniProt P28702).
T1 construct: expressed in transfected cells
T1 sequence (P28702 1-533): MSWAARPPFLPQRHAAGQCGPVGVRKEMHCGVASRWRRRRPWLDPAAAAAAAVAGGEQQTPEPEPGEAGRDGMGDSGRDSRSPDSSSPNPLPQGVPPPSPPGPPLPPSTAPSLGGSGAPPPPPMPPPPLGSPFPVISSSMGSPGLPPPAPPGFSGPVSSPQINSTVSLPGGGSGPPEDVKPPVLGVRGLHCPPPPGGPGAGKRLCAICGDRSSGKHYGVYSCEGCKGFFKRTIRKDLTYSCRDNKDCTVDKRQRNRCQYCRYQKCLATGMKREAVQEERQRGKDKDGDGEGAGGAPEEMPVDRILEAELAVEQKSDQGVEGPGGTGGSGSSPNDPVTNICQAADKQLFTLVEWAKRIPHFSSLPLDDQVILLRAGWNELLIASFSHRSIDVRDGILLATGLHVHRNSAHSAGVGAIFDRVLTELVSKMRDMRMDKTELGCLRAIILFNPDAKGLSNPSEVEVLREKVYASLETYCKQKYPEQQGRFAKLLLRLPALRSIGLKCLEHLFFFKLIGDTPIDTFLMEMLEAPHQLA
Nature of the data set: holoreceptor transactivation assay. The following applies: for Transactivation % Efficiency RXRβ: efficacy as percentage compared to the standard compound; for EC50: holoreceptor assay. It counts as cell-based. From the text:
(§1) A holoreceptor transactivation assay and a ligand binding assay which measure the antagonist/agonist like activity of the compounds of the invention, or their ability to bind to the several retinoid receptor subtypes, respectively, are described in published PCT Application No. WO WO93/11755 (particularly on pages 30-33 and 37-41) published on Jun. 24, 1993, the specification of which is also incorporated herein by reference. A detailed experimental procedure for holoreceptor transactivations has been described by Heyman et al. Cell 68, 397-406, (1992); Allegretto et al. J. Biol. Chem. 268, 26625-26633, and Mangelsdorf et al. The Retinoids: Biology, Chemistry and Medicine, pp 319-349, Raven Press Ltd., New York, which are expressly incorporated herein by reference. The results obtained in this assay are expressed in EC50 numbers, as they are also in the, chimeric receptor transactivation assay. The results of the ligand binding assay are expressed in Ki numbers. (See Cheng et al. Biochemical Pharmacology Vol. 22 pp 3099-3108, expressly incorporated herein by reference.)
(§2) Efficacy in a transactivation assay is expressed as a percentage of the maximum potency attained by the compound compared to a standard which, in this, case, is the compound named (2E, 4E, 1′S, 2′S)-3-methyl-5-[2′-methyl-2′-(5,5,8,8-tetramethyl-5,6,7,8-tetrahydro-naphthalen-2-yl)-cyclopropyl]-penta-2,4-dienoic acid. This standard compound is described in U.S. Pat. No. 6,114,533.
(§3) Table 1 discloses the activity of certain exemplary tetrahydronaphthale compounds of the invention in the above-described RXR receptor transactivation and binding assays. […] The transactivation data pertaining to the activation of RXR receptors were obtained in the holoreceptor assay.
(§4) In Tables 1 and 2 the binding Ki numbers are indicated in the first 3 columns. In the second set of three columns the numbers in parentheses indicate efficacy as a percentage compared to the standard compound, (2E, 4E, 1′S, 2′S)-3-methyl-5-[2′-methyl-2′-(5,5,8,8-tetramethyl-5,6,7,8-tetrahydro-naphthalen-2-yl)-cyclopropyl]-penta-2,4-dienoic acid and the other numbers indicate the measured EC50 in nanomolar concentration.

The target in data set [2] is T2, RXRα (Homo sapiens, UniProt P19793).
T2 construct: expressed in transfected cells
T2 sequence (P19793 1-462): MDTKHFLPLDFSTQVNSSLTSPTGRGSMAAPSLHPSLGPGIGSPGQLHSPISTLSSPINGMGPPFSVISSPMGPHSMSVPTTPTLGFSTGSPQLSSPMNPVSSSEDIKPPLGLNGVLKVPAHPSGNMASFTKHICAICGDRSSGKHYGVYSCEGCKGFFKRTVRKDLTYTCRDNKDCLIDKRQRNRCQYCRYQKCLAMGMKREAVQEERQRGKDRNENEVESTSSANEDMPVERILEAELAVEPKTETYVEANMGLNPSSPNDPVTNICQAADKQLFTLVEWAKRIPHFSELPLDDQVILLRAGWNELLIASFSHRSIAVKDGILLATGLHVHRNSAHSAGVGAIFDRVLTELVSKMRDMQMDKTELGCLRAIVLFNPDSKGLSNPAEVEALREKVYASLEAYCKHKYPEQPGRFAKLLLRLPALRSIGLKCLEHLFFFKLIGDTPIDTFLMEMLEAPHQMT
Put plainly: holoreceptor transactivation assay. It counts as cell-based. The following applies: for Transactivation % Efficiency RXRα: efficacy as percentage compared to the standard compound; for EC50: holoreceptor assay.
Source text: as §1, §2, §3, §4

The next data set has as its target T3, RXRγ (Homo sapiens, UniProt P48443).
T3 construct: expressed in transfected cells
T3 sequence (P48443 1-463): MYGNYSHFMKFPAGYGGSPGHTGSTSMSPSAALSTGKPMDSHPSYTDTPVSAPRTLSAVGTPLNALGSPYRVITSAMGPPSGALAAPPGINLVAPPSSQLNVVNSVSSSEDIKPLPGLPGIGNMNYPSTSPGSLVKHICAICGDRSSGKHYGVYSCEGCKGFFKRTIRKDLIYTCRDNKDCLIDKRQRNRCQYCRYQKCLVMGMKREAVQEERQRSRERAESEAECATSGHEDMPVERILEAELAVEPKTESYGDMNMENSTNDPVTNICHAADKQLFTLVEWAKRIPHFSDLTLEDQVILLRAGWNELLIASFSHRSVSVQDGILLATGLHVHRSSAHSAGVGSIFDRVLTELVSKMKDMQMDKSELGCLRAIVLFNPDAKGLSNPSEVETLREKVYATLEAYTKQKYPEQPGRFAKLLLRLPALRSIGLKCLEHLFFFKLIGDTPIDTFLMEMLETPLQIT
Put plainly: holoreceptor transactivation assay. Type of data set: cell-based. The following applies: for Transactivation % Efficiency RXRγ: efficacy as percentage compared to the standard compound; for EC50: holoreceptor assay.
Source text: as §1, §2, §3, §4

Data set [3] relates to female diabetic db/db mice. Put plainly: serum glucose, triglyceride and thyroxine levels in diabetic db/db mice. As to conditions: for Glucose / Triglycerides / T4: db/db mice; for T4: Day 7. Type of data set: in vivo. From the text:
An assay described below tests the effect of compounds of the invention on serum glucose, tryglyceride and thyroxine levels in female 9-10 weeks old db/db mice.
Female diabetic db/db (9-10 weeks old) mice were maintained on standard laboratory food and treated by oral gavage with vehicle (corn oil), standard compound (2E, 4E, 1′S, 2S)-3-methyl-5-[2′-methyl-2′-(5,5,8,8-tetramethyl-5,6,7,8-tetrahydro-naphthalen-2-yl)-cyclopropyl]-penta-2,4-dienoic acid ([…]) daily for seven days at 8:00 AM. Blood samples (70 μl) were taken by orbital bleeding at 11:00 AM on day 0 (pre-treatment), day 3, and day 6. On day 7, a blood sample (700 μl) was taken at 11:00 AM and the animals were sacrificed. Glucose, triglyceride and thyroxine (T4) levels were determined on a Boehringer Manheim Hatachi Clinical Chemistry Analyzer using standard protocols provided by the manufacturer and reagents that were supplied in commercially available kits (glucose and T4: Boehringer Manheim; triglycerides: Roche Diagnostics). Seven animals were treated in each group.

Data set [4] deals with T1, RXRβ. Put plainly: RXR ligand binding assay.
Source text: as §1, §4

Data set [5] has as its target T2, RXRα. Put plainly: RXR ligand binding assay.
Source text: as §1, §4

The mark [6] stands for this setting: Day 0 (pre-treatment), 50 mg/kg oral gavage daily.
The mark [7] stands for this setting: Day 3, 3 h, 50 mg/kg oral gavage daily.
The mark [8] stands for this setting: Day 6, 3 h, 50 mg/kg oral gavage daily.
The mark [9] stands for this setting: Day 0 (pre-treatment), 4 mg/kg oral gavage daily.
Setting [10] is: Day 3, 3 h, 4 mg/kg oral gavage daily.
Where [11] appears, read: Day 6, 3 h, 4 mg/kg oral gavage daily.

In general, EC50 refers to the concentration that produces a half-maximal response. A high value points to a need for much substance. One may read the Ki as a dissociation constant, usually derived from enzyme kinetics or from competition with a known ligand. Read a high Ki as lower affinity.

Turning to `COC[C@H]1[C@@H](/C=C/C(C)=C/C(=O)O)[C@@]1(C)c1ccc2c(c1)C(C)(C)CCC2(C)C` (stereo in doubt) [Compound 21a, (−)-(1R, 2S, 3 S)-5-[3-Methoxymethyl-2-methyl-2-(5,5,8,8-tetramethyl-5,6,7,8-tetrahydro-naphthalen-2-yl)-cyclopropyl]-3-methyl-penta-2E,4E-dienoic acid], the “Transactivation % Efficiency RXRβ” value at RXRβ [1] is 38%. Further, the EC50 came to 36 nM at RXRβ [1], 4 nM at RXRα [2] and 6 nM at RXRγ. Also, the “Transactivation % Efficiency RXRα” value at RXRα [2] is listed as 39%. On RXRγ, the “Transactivation % Efficiency RXRγ” value was found to be 41%. Moreover, the Glucose in data set [3] (setting [6]) amounted to 445 ± 66 mg/dL; in data set [3] (setting [7]), 339 ± 194 mg/dL; in data set [3] (setting [8]), 314 ± 196 mg/dL. Moreover, the Triglycerides in data set [3] (setting [6]) worked out at 271 ± 80 mg/dL; in data set [3] (setting [7]) it was 130 ± 71 mg/dL; in data set [3] (setting [8]), 180 ± 63 mg/dL. The compound further registered a T4 in data set [3] (50 mg/kg oral gavage daily) of 4.2 ± 0.3 µg/dL. Moreover, the values for the inhibition constant (Ki) at RXRβ [4] and at RXRα [5] were 48 nM and 5 nM, respectively.

For the compound `CCOC[C@H]1[C@@H](/C=C/C(C)=C/C(=O)O)C1(C)c1ccc2c(c1)C(C)(C)CCC2(C)C` (stereo in doubt) [Compound 21b, (−)-(1R, 2S, 3S)-5-[3-Ethoxymethyl-2-methyl-2-(5,5,8,8-tetramethyl-5,6,7,8-tetrahydro-naphthalen-2-yl)-cyclopropyl]-3-methyl-penta-2E,4E-dienoic acid], the EC50 on RXRβ [1] was more than 1000 nM; on RXRα [2], 28 nM; at RXRγ, 44 nM. The “Transactivation % Efficiency RXRα” value on RXRα [2] came out at 41%. Further, the “Transactivation % Efficiency RXRγ” value at RXRγ was 34%. For the same compound, the results for the Ki at RXRβ [4] and on RXRα [5] were 227 nM and 17 nM, respectively.

Regarding `COC[C@@H]1[C@@H](/C=C/C(C)=C/C(=O)O)C1(C)c1ccc2c(c1)C(C)(C)CCC2(C)C` (stereo in doubt) [Compound 23a, (−)-(1R, 2S, 3R)-5-[3-Methoxymethyl-2-methyl-2-(5,5,8,8-tetramethyl-5,6,7,8-tetrahydro-naphthalen-2-yl)-cyclopropyl]-3-methyl-penta-2E,4E-dienoic acid], on RXRβ [1], the “Transactivation % Efficiency RXRβ” value worked out at 9% and the midpoint of the response, the EC50, lay at 546 nM. Also, on RXRα [2], the “Transactivation % Efficiency RXRα” value was determined as 9% and the midpoint of the response, the EC50, lay at 27 nM. For the same compound, at RXRγ, the “Transactivation % Efficiency RXRγ” value is given as 9% and a half-maximal response (EC50) required 60 nM. The Ki on RXRβ [4] turned out to be 188 nM. The same compound came in with a Ki at RXRα [5] of 18 nM.

As for `CCOC[C@@H]1[C@@H](/C=C/C(C)=C/C(=O)O)C1(C)c1ccc2c(c1)C(C)(C)CCC2(C)C` (stereo in doubt) [Compound 23b, (−)-(1R, 2S, 3R)-5-[3-Ethoxymethyl-2-methyl-2-(5,5,8,8-tetramethyl-5,6,7,8-tetrahydro-naphthalen-2-yl)-cyclopropyl]-3-methyl-penta-2E,4E-dienoic acid], the Ki at RXRβ [4] came to 121 nM; at RXRα [5], 27 nM.

As to `COCC1[C@@H](/C=C/C(C)=C/C(=O)O)C1(C)c1cc(C(C)C)cc(C(C)C)c1` (stereo in doubt) [Compound 29, (−)-(1R, 2S, 3S)-5-[3-Methoxymethyl-2-methyl-2-(3,5-diisopropyl-phenyl)-cyclopropyl]-3-methyl-penta-2E,4E-dienoic acid], the “Transactivation % Efficiency RXRβ” value at RXRβ [1] is listed as 34%. In addition, the EC50 on RXRβ [1] is 47 nM; on RXRα [2], 5 nM; at RXRγ it was 16 nM. Moreover, the “Transactivation % Efficiency RXRα” value on RXRα [2] stood at 24%. Also, the “Transactivation % Efficiency RXRγ” value at RXRγ turned out to be 35%. The Ki at RXRβ [4] worked out at 49 nM; on RXRα [5] it was 11 nM.

Consider `COCC1[C@@H](/C=C/C(C)=C/C(=O)O)C1(C)c1cc(C(C)C)cc(C(C)C)c1` (stereo in doubt) [Compound 31a, (−)-(1R, 2S, 3R)-5-[3-Methoxymethyl-2-methyl-2-(3,5-diisopropyl-phenyl)-cyclopropyl]-3-methyl-penta-2E,4E-dienoic acid], for which the “Transactivation % Efficiency RXRβ” value on RXRβ [1] came to 90%. The EC50 came to 17 nM on RXRβ [1], 2.7 nM on RXRα [2] and 3.6 nM at RXRγ. Besides, on RXRα [2], the “Transactivation % Efficiency RXRα” value amounted to 104%. Besides, on RXRγ, the “Transactivation % Efficiency RXRγ” value came out at 101%. The Ki is 25 nM on RXRβ [4] and 7.6 nM on RXRα [5].

Turning to `CC(/C=C/[C@@H]1C[C@]1(C)c1ccc2c(c1)C(C)(C)CCC2(C)C)=C\C(=O)O` [Standard compound, (2E, 4E, 1′S, 2′S)-3-methyl-5-[2′-methyl-2′-(5,5,8,8-tetramethyl-5,6,7,8-tetrahydro-naphthalen-2-yl)-cyclopropyl]-penta-2,4-dienoic acid], the Glucose in data set [3] (setting [9]) was found to be 423 ± 57 mg/dL; in data set [3] (setting [10]), 315 ± 105 mg/dL; in data set [3] (setting [11]), 268 ± 242 mg/dL. Also, the values for the Triglycerides in data set [3] (setting [9]), in data set [3] (setting [10]) and in data set [3] (setting [11]) were 300 ± 76 mg/dL, 219 ± 80 mg/dL and 117 ± 22 mg/dL, respectively. This compound also returned a T4 in data set [3] (4 mg/kg oral gavage daily) of 1.1 ± 0.2 µg/dL. For the same compound, the “effect on serum thyroxine levels (in words)” value in data set [3] (diabetic mammals) is “undesirable side effect of reducing serum thyroxine levels”.
